Assay results published in patent US20260374815A1, “PIGMENT EPITHELIUM-DERIVED FACTOR PEPTIDES AND USE FOR TREATING RETINAL DEGENERATION” (priority 2022, published 2026).
Where no end group is shown, it is not given here.

Tests used:
[1] = Penetration or bioavailability of labeled peptide in retina after eyedrop (fluorometry of retinal extract); type: in vivo, mouse (C57/B16J); details: eyedrops; P21 mice; measured with the Alexa488-labeled peptide
Experimental: To detect labeled peptide in vitro, the labeled Alexa488-17-mer[H105A] peptide was diluted in HBSS at the indicated concentrations (X-axis). A total of 30 μl of each was added to a well in 96-well plate in triplicates. RIPA buffer was added to one dissected mouse retina at 80 μl/retina. The suspension was sonicated for 30 sec at 4 °C followed by centrifugation at 4 °C. 10 min at […] (Eppendorf centrifuge) to separate the soluble retinal extract from the particulate material. The labeled peptide was diluted in retinal extract. A total of 30 μl of each was added to a well in 96-well plate. HBSS (FIG. 18A) or retinal extract (FIG. 18B) were used as a control at zero and different concentrations of 17mer[H105A]-488 as indicated in the x-axis. Fluorescence was determined using a fluorometer [BMG LabTech POLARstar OPTIMA] using wavelength at [Excitation 485-P, Emission 520-P]. Plots were obtained using GraphPad and non-linear fit were analyzed.
At 1, 3, 6 and 24 hours after administration, retinas were dissected, their proteins were extracted with RIPA (80 μl/retina) and clarified by sonication and centrifugation. A total of 30 μl of extracts were used to determine the fluorescence of the peptide with a fluorometer (FIG. 19).

[2] = tested on: photoreceptor function, rd10 mice; test: Electroretinography (ERG), rd10 mice; type: in vivo, mouse
Experimental: (§1) At end point, eyes were enucleated and cross section of retinas from the treated animals were obtained. […] Third, electroretinography was performed in untreated and eyes treated with the 17mer[H105A] peptide eyedrops. Following an intense brief flash of light from darkness, the negative-going a-wave is generated by rod photocurrents and the positive-going b-wave by depolarizing bipolar-cell currents in combination with bipolar cell-dependent K^+ currents affecting Müller cells. […] Scotopic b wave was also measured for both rd10 and rd10/SerpinF1 null mice (FIG. 10C). The data from these different assays corroborate the PSVue® data and illustrate the efficacy of eyedrops of the 17mer[H105A] peptide for protecting the photoreceptors against malformation, death, and misfunction in vivo.
At end point, eyes were enucleated and cross section of retinas from the treated animals were obtained. […] Electroretinography was also performed in untreated and eyes of rd10 mice treated with the […] eyedrops. […] The work was done with 3 animals, which may not give statistical significance.

[3] = tested on: photoreceptor function, rd10/Serpinf1 null mice; test: Electroretinography (ERG), rd10/Serpinf1 null mice; type: in vivo, mouse; details: P21, daily eyedrops P15-P20
Experimental: as §1

[4] = P25, eyedrops every other day P15-P24

QRTESIIARALYYDLIS [17mer[H105A]]
time after eyedrop at which the peptide reached the retina [1]: 1 to 24 h | ERG amplitude of the a-wave ([2]; P21, daily eyedrops P15-P20): improvement | ERG amplitude of the a-wave [2, 4]: improvement | ERG amplitude of the b-wave [2, 4]: improvement | statistical difference in b-wave between treated and untreated ([2]; P25, eyedrops every other day, 3 animals): no statistically significant difference | ERG amplitude of the a-wave [3]: improvement
